According to ChEMBL document CHEMBL1140588, “Design and synthesis of potent amido- and benzyl-substituted cis-3-amino-4-(2-cyanopyrrolidide)pyrrolidinyl DPP-IV inhibitors” (Bioorg Med Chem Lett, 2007):

Columns and labels:
[1] = target: Dipeptidyl peptidase 8 (Homo sapiens, UniProt Q6V1X1); assay: Inhibition of human DPP8
[2] = target: hERG (KCNH2) (Homo sapiens, UniProt Q12809); assay: Displacement of [3H]dofetilide from hERG at 10 uM; settings: probe [3H]dofetilide, read-out: Activity
[3] = Bioavailability in Sprague-Dawley rat at 5 mg/kg, po; format: ADME, organism-based; settings: in vivo
[4] = system: Rattus norvegicus; assay: Inhibition of DPP4 in Sprague-Dawley rat at 5 mg/kg, po between 4 to 6 hrs; format: functional; parameters: scale not given: the % may be the effect or the level left
[5] = target: Voltage-gated inwardly rectifying potassium channel KCNH2 (Homo sapiens, UniProt Q12809); assay: Inhibition of hERG by patch clamp assay; format: toxicity
[6] = Cmax in Sprague-Dawley rat at 5 mg/kg, po; format: ADME, organism-based; parameters: dose 5 mg/kg, route oral; settings: in vivo
[7] = Plasma protein binding in Sprague-Dawley rat at 5 mg/kg, po; format: ADME, organism-based; parameters: dose 5 mg/kg, route oral; settings: read-out: PB (converted)
[8] = system: Rattus norvegicus; assay: AUC(0 to infinity) in Sprague-Dawley rat at 5 mg/kg, po; format: ADME, organism-based, Plasma; parameters: time infinity, dose 5 mg/kg, route oral; settings: in vivo
[9] = Half life in Sprague-Dawley rat at 5 mg/kg, po; format: ADME, organism-based; parameters: dose 5 mg/kg, route oral; settings: in vivo
[10] = species: Rattus norvegicus; assay: Inhibition of DPP4 in Sprague-Dawley rat; format: functional

Sequence of Dipeptidyl peptidase 8 (Q6V1X1 whole entry): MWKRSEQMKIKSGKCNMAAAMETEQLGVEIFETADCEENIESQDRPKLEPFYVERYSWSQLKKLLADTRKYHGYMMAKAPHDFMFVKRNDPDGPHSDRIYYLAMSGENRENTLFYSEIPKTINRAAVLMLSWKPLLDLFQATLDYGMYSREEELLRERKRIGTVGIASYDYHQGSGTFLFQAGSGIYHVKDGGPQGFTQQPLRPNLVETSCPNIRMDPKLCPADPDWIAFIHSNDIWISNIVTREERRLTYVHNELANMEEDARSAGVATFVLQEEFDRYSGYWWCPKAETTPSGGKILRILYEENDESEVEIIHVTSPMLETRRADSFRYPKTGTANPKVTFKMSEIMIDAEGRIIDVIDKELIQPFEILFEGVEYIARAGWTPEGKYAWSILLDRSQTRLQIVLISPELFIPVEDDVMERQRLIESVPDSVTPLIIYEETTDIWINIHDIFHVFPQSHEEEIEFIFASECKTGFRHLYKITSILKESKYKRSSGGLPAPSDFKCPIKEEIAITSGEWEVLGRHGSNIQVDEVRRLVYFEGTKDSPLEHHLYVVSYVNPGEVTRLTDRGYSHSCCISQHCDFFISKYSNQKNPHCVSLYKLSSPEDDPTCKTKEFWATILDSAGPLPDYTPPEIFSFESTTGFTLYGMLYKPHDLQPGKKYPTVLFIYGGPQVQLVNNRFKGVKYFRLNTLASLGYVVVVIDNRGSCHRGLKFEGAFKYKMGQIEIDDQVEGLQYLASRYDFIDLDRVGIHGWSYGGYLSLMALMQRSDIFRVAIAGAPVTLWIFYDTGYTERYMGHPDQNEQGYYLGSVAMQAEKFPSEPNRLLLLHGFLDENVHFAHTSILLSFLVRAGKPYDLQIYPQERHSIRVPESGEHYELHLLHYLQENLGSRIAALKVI
Sequence of hERG (KCNH2) (Q12809 whole entry): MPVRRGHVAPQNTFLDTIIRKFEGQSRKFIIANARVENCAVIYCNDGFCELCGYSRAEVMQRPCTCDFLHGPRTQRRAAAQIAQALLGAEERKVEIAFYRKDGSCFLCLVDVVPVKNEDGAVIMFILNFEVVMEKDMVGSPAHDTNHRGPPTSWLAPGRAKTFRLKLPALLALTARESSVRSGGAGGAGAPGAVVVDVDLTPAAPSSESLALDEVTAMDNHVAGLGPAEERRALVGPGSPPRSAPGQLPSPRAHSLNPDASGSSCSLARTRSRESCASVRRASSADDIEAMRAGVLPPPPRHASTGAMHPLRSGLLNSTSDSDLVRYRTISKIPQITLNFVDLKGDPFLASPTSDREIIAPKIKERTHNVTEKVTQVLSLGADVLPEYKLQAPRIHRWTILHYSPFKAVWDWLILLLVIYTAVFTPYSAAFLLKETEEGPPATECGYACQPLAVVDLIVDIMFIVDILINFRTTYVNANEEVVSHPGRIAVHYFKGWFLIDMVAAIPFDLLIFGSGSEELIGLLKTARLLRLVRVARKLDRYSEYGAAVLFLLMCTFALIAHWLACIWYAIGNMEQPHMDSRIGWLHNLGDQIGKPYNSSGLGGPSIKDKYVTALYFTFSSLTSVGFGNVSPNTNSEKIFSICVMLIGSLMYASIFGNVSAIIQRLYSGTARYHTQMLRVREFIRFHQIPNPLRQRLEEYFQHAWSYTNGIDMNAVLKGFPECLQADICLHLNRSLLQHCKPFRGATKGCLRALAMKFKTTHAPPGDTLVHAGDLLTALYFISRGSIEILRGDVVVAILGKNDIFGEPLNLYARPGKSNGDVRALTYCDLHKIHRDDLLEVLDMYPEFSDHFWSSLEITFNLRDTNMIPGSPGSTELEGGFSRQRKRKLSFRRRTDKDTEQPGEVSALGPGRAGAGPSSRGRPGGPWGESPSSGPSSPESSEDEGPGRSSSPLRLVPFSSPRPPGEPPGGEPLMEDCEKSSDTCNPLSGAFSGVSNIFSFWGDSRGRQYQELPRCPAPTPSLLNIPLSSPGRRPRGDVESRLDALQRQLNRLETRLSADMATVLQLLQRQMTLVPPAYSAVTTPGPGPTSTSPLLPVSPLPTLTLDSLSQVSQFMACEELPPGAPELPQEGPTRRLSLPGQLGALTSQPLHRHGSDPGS
Sequence of Voltage-gated inwardly rectifying potassium channel KCNH2 (Q12809 whole entry): as above

Row | Compound | IC50 [1] [nM] | inhibition at 10 µM [2] [%] | other results
1 | N#Cc1ccc(CN2C[C@H](N)[C@H](C(=O)N3CCC[C@H]3C#N)C2)cc1 | 560 | 47 | –
2 | Cn1nccc1-c1ccc(CN2C[C@H](N)[C@H](C(=O)N3CCC[C@H]3C#N)C2)cc1 | 148 | 36 | –
3 | Cc1ncn(-c2ccc(CN3C[C@H](N)[C@H](C(=O)N4CCC[C@H]4C#N)C3)cc2)n1 | 858 | 4 | bioavailability [3]: 36%; Activity [4]: 51%
4 | N#C[C@@H]1CCCN1C(=O)[C@@H]1CN(Cc2cnc3ccccc3c2)C[C@@H]1N | 3290 | 36 | –
5 | N[C@H]1CN(C(=O)c2cc3ccccc3s2)C[C@H]1C(=O)N1CCCC1 | – | 5 | –
6 | N[C@H]1CN(C(=O)c2ccc3ccccc3c2)C[C@H]1C(=O)N1CCCC1 | – | 4 | –
7 | N#C[C@@H]1CCCN1C(=O)[C@@H]1CN(Cc2ccc(-c3cc[nH]n3)cc2)C[C@@H]1N | 326 | 65 | –
8 | Cn1cc(-c2ccc(CN3C[C@H](N)[C@H](C(=O)N4CCC[C@H]4C#N)C3)cc2)cn1 | 363 | 71 | –
9 | N#C[C@@H]1CCCN1C(=O)[C@@H]1CN(Cc2ccc(-c3csnn3)cc2)C[C@@H]1N | 190 | 91 | –
10 | N#Cc1ccc2c(c1)CCC2N1C[C@H](N)[C@H](C(=O)N2CCC[C@H]2C#N)C1 (some centres undefined) | – | 88 | –
11 | N[C@H]1CN(C(=O)c2ccc(-n3cnnn3)cc2)C[C@H]1C(=O)N1CCCC1 | – | 15 | –
12 | CC(c1ccc(C#N)cc1)N1C[C@H](N)[C@H](C(=O)N2CCC[C@H]2C#N)C1 (some centres undefined) | 1040 | 18 | IC50 [5]: 10000 nM
13 | N[C@H]1CN(C(=O)c2ccc3ncccc3c2)C[C@H]1C(=O)N1CCCC1 | – | 19 | –
14 | N[C@H]1CN(C(=O)c2cc3ccccc3cn2)C[C@H]1C(=O)N1CCCC1 | – | 0.5 | –
15 | N[C@H]1CN(C(=O)c2cnc3ccccc3c2)C[C@H]1C(=O)N1CCCC1 | – | 9 | –
16 | N[C@H]1CN(Cc2ccc(-n3cnnn3)cc2)C[C@H]1C(=O)N1CCCC1 | – | 43 | –
17 | N#Cc1cc(CN2C[C@H](N)[C@H](C(=O)N3CCCC3)C2)ccc1F | – | 9 | –

Row | Compound | IC50 [1] [nM] | inhibition at 10 µM [2] [%] | other results
18 | N[C@H]1CN(Cc2ccc(-c3csnn3)cc2)C[C@H]1C(=O)N1CCCC1 | – | 84 | –
19 | Cc1cc(-n2cncn2)ccc1CN1C[C@H](N)[C@H](C(=O)N2CCC[C@H]2C#N)C1 | – | 62 | –
20 | N[C@H]1CN(Cc2cnc3ccccc3c2)C[C@H]1C(=O)N1CCCC1 | – | 32 | –
21 | N#C[C@@H]1CCCN1C(=O)[C@@H]1CN(Cc2ccc(-n3cncn3)cc2)C[C@@H]1N | 461 | 40 | IC50 [5]: 1800 nM
22 | CC(c1ccc([N+](=O)[O-])cc1)N1C[C@H](N)[C@H](C(=O)N2CCCC2)C1 (some centres undefined) | – | 13 | –
23 | Cc1nnc(-c2ccc(CN3C[C@H](N)[C@H](C(=O)N4CCC[C@H]4C#N)C3)cc2)o1 | 704 | 4 | IC50 [5]: 165000 nM
24 | Cc1cc(CN2C[C@H](N)[C@H](C(=O)N3CCC[C@H]3C#N)C2)cc(C)c1C#N | – | 21 | IC50 [5]: 28900 nM
25 | N#C[C@@H]1CCCN1C(=O)[C@@H]1CN(Cc2ccc(-n3nccn3)cc2)C[C@@H]1N | 247 | 49 | –
26 | CC(c1ccc(-n2cncn2)cc1)N1C[C@H](N)[C@H](C(=O)N2CCC[C@H]2C#N)C1 (some centres undefined) | – | 7 | Cmax [6]: 1400 ng/mL; fraction unbound [7]: 0.77; AUC [8]: 7703 ng·h/mL; half-life [9]: 4.3 h; Inhibition [10]: 86%; bioavailability [3]: 30.6%
27 | N#C[C@@H]1CCCN1C(=O)[C@@H]1CN(C2CCOc3ccccc32)C[C@@H]1N (some centres undefined) | – | 7 | –
28 | N[C@H]1CN(C(=O)c2ccc(-n3cncn3)cc2)C[C@H]1C(=O)N1CCCC1 | – | 14 | –
29 | N[C@H]1CN(C(=O)c2cc3cc(Cl)ccc3o2)C[C@H]1C(=O)N1CCCC1 | – | 14 | –
30 | Cc1cc(CN2C[C@H](N)[C@H](C(=O)N3CCC[C@H]3C#N)C2)ccc1-n1cncn1 | – | 17 | –
31 | N[C@H]1CN(C(=O)c2cnc3ccccc3n2)C[C@H]1C(=O)N1CCCC1 | – | 0.241 | IC50 [5]: > 300000 nM
32 | N[C@H]1CN(Cc2ccc(F)c(F)c2)C[C@H]1C(=O)N1CCCC1 | – | 19 | –
33 | CCc1cc(CN2C[C@H](N)[C@H](C(=O)N3CCC[C@H]3C#N)C2)cc(CC)c1C#N | – | 3 | –
34 | N#Cc1cc(CN2C[C@H](N)[C@H](C(=O)N3CCC[C@H]3C#N)C2)ccc1F | 922 | 10 | –
